US20260015350A1, “AZAQUINAZOLINE PAN-KRAS INHIBITORS” (Mirati Therapeutics, Inc., priority 2022, published 2026)

Tests used:
KRas^G13D = biological target: T1, KRas^G13D (Homo sapiens, UniProt P01116, G13D); assay: KRas binding assay (TR-FRET tracer displacement), KRas G13D; details: TR-FRET tracer displacement, KRas G13D
T1 construct: Biotinylated KRas (corresponding to amino acids 1-169, produced at Accelegan Inc.); biotin (biotinylated); purchased Accelegan Inc

KRas^Q61H = biological target: T2, KRas^Q61H (Homo sapiens, UniProt P01116, Q61H); assay: KRas binding assay (TR-FRET tracer displacement), KRas Q61H; details: TR-FRET tracer displacement, KRas Q61H
T2 construct: Biotinylated KRas (corresponding to amino acids 1-169, produced at Accelegan Inc.); biotin (biotinylated); purchased Accelegan Inc
T2 sequence (P01116 1-169 isoform P01116-2 Q61H): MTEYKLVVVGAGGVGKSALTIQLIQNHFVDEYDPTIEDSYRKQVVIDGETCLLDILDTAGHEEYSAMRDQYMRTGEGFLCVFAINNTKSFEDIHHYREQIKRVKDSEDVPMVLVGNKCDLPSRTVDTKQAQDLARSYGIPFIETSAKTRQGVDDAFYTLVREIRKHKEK

KRas^G12V = biological target: T3, KRas^G12V (Homo sapiens, UniProt P01116, G12V); assay: KRas binding assay (TR-FRET tracer displacement), KRas G12V
T3 construct: Biotinylated KRas (corresponding to amino acids 1-169, produced at Accelegan Inc.); biotin (biotinylated); purchased Accelegan Inc
T3 sequence (P01116 1-169 isoform P01116-2 G12V): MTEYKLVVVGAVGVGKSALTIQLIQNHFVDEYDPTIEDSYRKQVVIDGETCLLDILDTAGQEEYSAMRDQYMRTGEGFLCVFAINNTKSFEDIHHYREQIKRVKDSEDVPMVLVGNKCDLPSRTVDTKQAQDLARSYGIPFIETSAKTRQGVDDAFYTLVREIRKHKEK

KRas^G12R = biological target: T4, KRas^G12R (Homo sapiens, UniProt P01116, G12R); assay: KRas binding assay (TR-FRET tracer displacement), KRas G12R
T4 construct: Biotinylated KRas (corresponding to amino acids 1-169, produced at Accelegan Inc.); biotin (biotinylated); purchased Accelegan Inc
T4 sequence (P01116 1-169 isoform P01116-2 G12R): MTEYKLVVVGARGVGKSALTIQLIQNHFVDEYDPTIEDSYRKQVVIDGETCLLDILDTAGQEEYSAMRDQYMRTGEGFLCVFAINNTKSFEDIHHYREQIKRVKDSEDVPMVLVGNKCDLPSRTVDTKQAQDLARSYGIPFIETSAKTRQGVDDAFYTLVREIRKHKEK

KRas^G12A = biological target: T5, KRas^G12A (Homo sapiens, UniProt P01116, G12A); assay: KRas binding assay (TR-FRET tracer displacement), KRas G12A; details: TR-FRET tracer displacement, KRas G12A
T5 construct: Biotinylated KRas (corresponding to amino acids 1-169, produced at Accelegan Inc.); biotin (biotinylated); purchased Accelegan Inc
T5 sequence (P01116 1-169 isoform P01116-2 G12A): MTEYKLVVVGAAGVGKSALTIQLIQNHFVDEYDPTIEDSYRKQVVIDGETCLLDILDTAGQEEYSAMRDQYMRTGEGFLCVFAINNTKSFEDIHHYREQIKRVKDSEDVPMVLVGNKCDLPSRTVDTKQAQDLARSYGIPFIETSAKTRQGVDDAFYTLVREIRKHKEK

KRas^G12C = biological target: T6, KRas^G12C (Homo sapiens, UniProt P01116, G12C); assay: KRas binding assay (TR-FRET tracer displacement), KRas G12C; details: TR-FRET tracer displacement, KRas G12C
T6 construct: Biotinylated KRas (corresponding to amino acids 1-169, produced at Accelegan Inc.); biotin (biotinylated); purchased Accelegan Inc
T6 sequence (P01116 1-169 isoform P01116-2 G12C): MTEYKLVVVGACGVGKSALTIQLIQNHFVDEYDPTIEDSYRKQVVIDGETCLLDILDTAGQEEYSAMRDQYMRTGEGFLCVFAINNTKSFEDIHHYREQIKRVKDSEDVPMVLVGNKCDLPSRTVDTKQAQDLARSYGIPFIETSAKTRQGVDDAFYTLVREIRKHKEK

[1] = test system: KRas-mediated phosphorylation of ERK in H727 cells; assay: Inhibition of KRas-mediated phosphorylation of ERK (Cisbio HTRF pERK), H727 cells; type: cell-based; details: Homo sapiens; for IC50: NCI-H727, H727 cells, HTRF pERK
Procedure, shortened: (§1)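 Phosphorylated ERK was quantified by HTRF using d2-conjugate and Cryptate antibodies added to lysates for 2 hrs at room temperature.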

[2] = test system: KRas-mediated phosphorylation of ERK in AsPC-1 cells; assay: Inhibition of KRas-mediated phosphorylation of ERK (Cisbio HTRF pERK), AsPC-1 cells; type: cell-based; details: Homo sapiens; for IC50: ASPC1, AsPC-1 cells, HTRF pERK
Procedure, shortened: as §1

KRas^G12D = biological target: T7, KRas^G12D (Homo sapiens, UniProt P01116, G12D); assay: KRas binding assay (TR-FRET tracer displacement), KRas G12D
T7 construct: Biotinylated KRas (corresponding to amino acids 1-169, produced at Accelegan Inc.); biotin (biotinylated); purchased Accelegan Inc
T7 sequence (P01116 1-169 isoform P01116-2 G12D): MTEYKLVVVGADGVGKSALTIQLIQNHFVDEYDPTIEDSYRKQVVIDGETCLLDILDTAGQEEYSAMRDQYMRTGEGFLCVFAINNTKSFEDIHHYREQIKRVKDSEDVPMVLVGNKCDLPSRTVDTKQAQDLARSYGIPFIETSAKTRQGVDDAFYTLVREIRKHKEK

KRas^G12S = biological target: T8, KRas^G12S (Homo sapiens, UniProt P01116, G12S); assay: KRas binding assay (TR-FRET tracer displacement), KRas G12S; details: TR-FRET tracer displacement, KRas G12S
T8 construct: Biotinylated KRas (corresponding to amino acids 1-169, produced at Accelegan Inc.); biotin (biotinylated); purchased Accelegan Inc
T8 sequence (P01116 1-169 isoform P01116-2 G12S): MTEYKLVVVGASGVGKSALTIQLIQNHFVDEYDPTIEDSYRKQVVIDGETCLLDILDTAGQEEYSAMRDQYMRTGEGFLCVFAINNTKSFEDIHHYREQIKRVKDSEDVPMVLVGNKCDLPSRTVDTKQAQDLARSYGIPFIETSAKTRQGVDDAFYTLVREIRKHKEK

KRas^WT = biological target: T9, KRas^WT (Homo sapiens, UniProt P01116); assay: KRas binding assay (TR-FRET tracer displacement), KRas WT; details: TR-FRET tracer displacement, KRas WT
T9 construct: Biotinylated KRas (corresponding to amino acids 1-169, produced at Accelegan Inc.); biotin (biotinylated); purchased Accelegan Inc
T9 sequence (P01116 1-169 isoform P01116-2): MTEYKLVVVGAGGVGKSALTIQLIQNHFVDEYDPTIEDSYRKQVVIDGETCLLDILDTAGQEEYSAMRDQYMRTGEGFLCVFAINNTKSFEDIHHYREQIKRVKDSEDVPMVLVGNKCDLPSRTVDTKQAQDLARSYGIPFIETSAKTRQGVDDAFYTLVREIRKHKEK

T1 sequence (P01116 1-169 isoform P01116-2 G13D): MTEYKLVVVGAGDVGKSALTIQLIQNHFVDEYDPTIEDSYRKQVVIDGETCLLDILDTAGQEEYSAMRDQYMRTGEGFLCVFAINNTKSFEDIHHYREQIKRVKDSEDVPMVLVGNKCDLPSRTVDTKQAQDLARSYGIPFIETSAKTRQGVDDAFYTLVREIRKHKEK

| IC50 (KRas^G13D) [nM] | IC50 (KRas^Q61H) [nM] | IC50 (KRas^G12V) [nM] | IC50 (KRas^G12R) [nM] | IC50 (KRas^G12A) [nM] | IC50 (KRas^G12C) [nM] | IC50 [1] [nM] | IC50 [2] [nM] | IC50 (KRas^G12D) [nM] | IC50 (KRas^G12S) [nM] | IC50 (KRas^WT) [nM] | Compound | inhibition at 0.1 µM ([1]; NCI-H727, 3 h, single point, 100 nM compound, 3 hrs, H727 cells) [%] | inhibition at 0.1 µM ([2]; ASPC1, 3 h, single point, 100 nM compound, 3 hrs, AsPC-1 cells) [%] |
| --- | --- | --- | --- | --- | --- | --- | --- | --- | --- | --- | --- | --- | --- |
| 11 | 9 | 11 | 9 | 14 | 11 | > 10000 | > 10000 | 16 | 11 | 13 | O=C1NC(=O)C2(CCCN(c3nc(OCC45CCCN4CCC5)nc4c(F)c(-c5c6ccccc6cc6[nH]ncc56)ncc34)C2)N1 (centres unmarked) [Example 755, 7-(7-(1H-benzo[f]indazol-4-yl)-8-fluoro-2-((hexahydro-1H-pyrrolizin-7a-yl)methoxy)pyrido[4,3-d]pyrimidin-4-yl)-1,3,7-triazaspiro[4.5]decane-2,4-dione] | – | – |
| 1210 | 954 | 988 | 1880 | 1160 | 927 | > 10000 | > 10000 | 2200 | 824 | 980 | Cc1c(Cl)cc2[nH]ncc2c1-c1ncc2c(N3CCC[C@]4(C3)NC(=O)NC4=O)nc(OCC34CCCN3CCC4)nc2c1F [Example 766, (5R)-7-(7-(6-chloro-5-methyl-1H-indazol-4-yl)-8-fluoro-2-((hexahydro-1H-pyrrolizin-7a-yl)methoxy)pyrido[4,3-d]pyrimidin-4-yl)-1,3,7-triazaspiro[4.5]decane-2,4-dione] | – | – |
| < 2 | < 2 | < 2 | 2 | < 2 | < 2 | 9390 | > 10000 | 2 | < 2 | < 2 | O=C1NC(=O)[C@]2(CCCN(c3nc(OCC45CCCN4CCC5)nc4c(F)c(-c5c(C6CC6)c(Cl)cc6[nH]ncc56)ncc34)C2)N1 [Example 779, (5R)-7-(7-(6-chloro-5-cyclopropyl-1H-indazol-4-yl)-8-fluoro-2-((hexahydro-1H-pyrrolizin-7a-yl)methoxy)pyrido[4,3-d]pyrimidin-4-yl)-1,3,7-triazaspiro[4.5]decane-2,4-dione] | – | – |

Continued, compound first:

| Compound | IC50 (KRas^G13D) [nM] | IC50 (KRas^Q61H) [nM] | IC50 (KRas^G12V) [nM] | IC50 (KRas^G12R) [nM] | IC50 (KRas^G12A) [nM] | IC50 (KRas^G12C) [nM] | IC50 [1] [nM] | IC50 [2] [nM] | IC50 (KRas^G12D) [nM] | IC50 (KRas^G12S) [nM] | IC50 (KRas^WT) [nM] | inhibition at 0.1 µM ([1]; NCI-H727, 3 h, single point, 100 nM compound, 3 hrs, H727 cells) [%] | inhibition at 0.1 µM ([2]; ASPC1, 3 h, single point, 100 nM compound, 3 hrs, AsPC-1 cells) [%] |
| --- | --- | --- | --- | --- | --- | --- | --- | --- | --- | --- | --- | --- | --- |
| Oc1cc(Cl)c(C2CC2)c(-c2ncc3c(N4CCC[C@]5(C4)C[C@@H](O)C5)nc(OCC45CCCN4CCC5)nc3c2F)c1 [Example 743, (2r,4s)-6-(7-(3-chloro-2-cyclopropyl-5-hydroxyphenyl)-8-fluoro-2-((tetrahydro-1H-pyrrolizin-7a(5H)-yl)methoxy)pyrido[4,3-d]pyrimidin-4-yl)-6-azaspiro[3.5]nonan-2-ol] | 9 | 7 | 3 | 20 | 8 | 6 | 1100 | 3690 | 8 | 8 | 9 | – | – |
| O=C1NCC2(CCCN(c3nc(OCC45CCCN4CCC5)nc4c(F)c(-c5c6ccccc6cc6[nH]ncc56)ncc34)C2)N1 (centres unmarked) [Example 756, 7-(7-(1H-benzo[f]indazol-4-yl)-8-fluoro-2-((hexahydro-1H-pyrrolizin-7a-yl)methoxy)pyrido[4,3-d]pyrimidin-4-yl)-1,3,7-triazaspiro[4.5]decan-2-one] | 13 | 13 | 10 | 17 | 14 | 12 | > 10000 | > 10000 | 11 | 13 | 13 | – | – |
| O=C1NC(=O)C2(CCCN(c3nc(OC[C@@]45CCCN4C[C@H](F)C5)nc4c(F)c(-c5c6ccccc6cc6[nH]ncc56)ncc34)C2)N1 (stereo partly drawn) [Example 759, 7-(7-(1H-benzo[f]indazol-4-yl)-8-fluoro-2-(((2R,7aS)-2-fluorohexahydro-1H-pyrrolizin-7a-yl)methoxy)pyrido[4,3-d]pyrimidin-4-yl)-1,3,7-triazaspiro[4.5]decane-2,4-dione] | 7 | 5 | 4 | 6 | 8 | 7 | > 10000 | > 10000 | 8 | 7 | 8 | – | – |
| O=C1NCC2(CCCN(c3nc(OC[C@@]45CCCN4C[C@H](F)C5)nc4c(F)c(-c5c6ccccc6cc6[nH]ncc56)ncc34)C2)N1 (stereo partly drawn) [Example 760, 7-(7-(1H-benzo[f]indazol-4-yl)-8-fluoro-2-(((2R,7aS)-2-fluorohexahydro-1H-pyrrolizin-7a-yl)methoxy)pyrido[4,3-d]pyrimidin-4-yl)-1,3,7-triazaspiro[4.5]decan-2-one] | 72 | 66 | 67 | 170 | 91 | 73 | > 10000 | > 10000 | 76 | 76 | 88 | – | – |
| Oc1cc(-c2ncc3c(N4C[C@@H]5C[C@H](C4)[C@H](O)C5)nc(OC[C@@]45CCCN4C[C@H](F)C5)nc3c2F)c2ccccc2c1Cl [Example 764, (1R,5R,6R)-3-(7-(4-chloro-3-hydroxynaphthalen-1-yl)-8-fluoro-2-(((2R,7aS)-2-fluorohexahydro-1H-pyrrolizin-7a-yl)methoxy)pyrido[4,3-d]pyrimidin-4-yl)-3-azabicyclo[3.2.1]octan-6-ol] | 2410 | 3930 | 1660 | 3120 | 2410 | 2390 | > 10000 | > 10000 | 5530 | 1690 | 3090 | – | – |
| CCc1cccc2cc3[nH]ncc3c(-c3ncc4c(N5CCCC6(CC(=O)N6)C5)nc(OC[C@@]56CCCN5C[C@H](F)C6)nc4c3F)c12 (stereo partly drawn) [Example 771, 6-(7-(5-ethyl-1H-benzo[f]indazol-4-yl)-8-fluoro-2-(((2R,7aS)-2-fluorohexahydro-1H-pyrrolizin-7a-yl)methoxy)pyrido[4,3-d]pyrimidin-4-yl)-1,6-diazaspiro[3.5]nonan-2-one] | 11 | 7 | 4 | 4 | 10 | 8 | 897 | 1370 | 5 | 9 | 12 | – | – |
| Oc1cc(-c2ncc3c(N4C[C@@H]5C[C@H](C4)[C@H](O)C5)nc(OC[C@@]45CCCN4C[C@H](F)C5)nc3c2F)c2ccccc2c1C(F)(F)F [Example 782, (1R,5R,6R)-3-(8-fluoro-2-(((2R,7aS)-2-fluorohexahydro-1H-pyrrolizin-7a-yl)methoxy)-7-(3-hydroxy-4-(trifluoromethyl)naphthalen-1-yl)pyrido[4,3-d]pyrimidin-4-yl)-3-azabicyclo[3.2.1]octan-6-ol] | 2550 | 4050 | 2040 | 3740 | 4370 | 2780 | – | – | 4650 | 2570 | 4220 | -11 | 5 |
